Key:
Hek293T = assay: CellTiterGlo cytotoxicity assay in Hek293T; type: cell-based; settings: 24h after compound addition
Procedure: For examination of cytotoxicity in these cancer cell lines the commercial available CellTiterGlo® Reagent (Promega, USA) was used according to the manufactor.
Compounds were applied to Hek293T (denoted (1)) or HepG2 (denoted (2)), cultured in Dulbecco's Modified Eagles Medium, supplemented with 10% fetal calf serum and 1% penicillin/streptomycin. Cells were grown in T75 flasks at 37 °C, 5% CO2 and trypsinized when 60-80% confluent by adding 2 ml of 0.25% Trypsin-EDTA solution. Cells were then re-suspended into culture medium yielding approx. 4000 cells (1) or 4500 cells (2), suspended in 30 microl medium. 48h after cell seeding, compounds were added to yield the desired final concentrations. 24h after compound addition cytotoxicity was evaluated. For this purpose the media was removed and CellTiterGlo® was added according to the manufactors manual. In this assay the luciferase emission readout is directly correlated with the cellular amount of ATP, low luciferase emission thus is reflecting cytotoxicity of a compound. For the evaluation of the IC50 the compound was applied in increasing concentrations yielding final concentrations per well of 5nM - 100 microM.

HS68 = assay: Cell line specific cytotoxicity, count of Hoechst labeled nuclei, HS68 fibroblasts; type: cell-based, human; settings: for Normalized cell count (HS68): normal cells, at least 72 hr
Procedure: For examination of cell line-specific cytotoxicity, compounds were applied to human colorectal cancer cells (HCT116, denoted (1); SW480, denoted (2); Dld-1, denoted (3)) and human fibroblasts (HFF-1, denoted (4); HS-68, denoted (5)), cultured in Mc Coy's (1) and Dulbecco's Modified Eagles Medium ((2)-(5)), supplemented with 10% ((1)-(3)) and 20% ((4), (5)) fetal calf serum and 1% penicillin/streptomycin. Cells were grown in T75 flasks at 37 °C, 5% CO2 and trypsinized when 60-80% confluent by adding 2 ml of 0.25% Trypsin-EDTA solution. Cells were then re-suspended into culture medium yielding approx. 750 cells, suspended in 45 microl medium, were plated into each well of a black 384-well plate for fluorescence imaging experiments. […] Compound incubation was terminated by (a) fixation and (b) permeabilisation of cells, followed by (c) fluorescence labeling of cell nuclei for cytometric quantification or by immunocytochemistry for microscopic evaluation of cell morphology. The three steps were performed by replacing the solution of the previous step in each well of a 384-well plate by (a) 30 microl PBS (phosphate buffered saline) containing 5% PFA (paraformaldehyde), (b) 30 microl PBS containing 0.2% TritonX-100 and (c) 10 microl PBS containing Hoechst-33342 for cytometry or Hoechst-33342, FITC-(fluorescein isothiocyanate-)labeled alpha-tubulin antibodies and TRITC-(tetramethylrhodamine isothiocyanate-)labeled phalloidin for microscopy. Solutions were incubated for 15 (a,b) and 30 min (c) in the dark at room temperature. Cells were washed twice between each step with 30 microl PBS. The assay system was miniaturized and adapted to automated workflow using liquid-handling robotics.
(§1) Cell line-specific cytotoxicity was quantified by counting the number of Hoechst labeled nuclei per well of a 384-well plate using a plate cytometer. Data obtained with the cytometer was analysed using standard data analysis software.
(§2) Identified hits were further evaluated by visual inspection of fluorescence micrographs obtained from imaging using a conventional fluorescence microscope.

HFF-1 = assay: Cell line specific cytotoxicity, HFF-1 fibroblasts; type: cell-based, human; settings: 10 microM; HFF-1 cell line
Procedure: For examination of cell line-specific cytotoxicity, compounds were applied to human colorectal cancer cells (HCT116, denoted (1); SW480, denoted (2); Dld-1, denoted (3)) and human fibroblasts (HFF-1, denoted (4); HS-68, denoted (5)), cultured in Mc Coy's (1) and Dulbecco's Modified Eagles Medium ((2)-(5)), supplemented with 10% ((1)-(3)) and 20% ((4), (5)) fetal calf serum and 1% penicillin/streptomycin. Cells were grown in T75 flasks at 37 °C, 5% CO2 and trypsinized when 60-80% confluent by adding 2 ml of 0.25% Trypsin-EDTA solution. Cells were then re-suspended into culture medium yielding approx. 750 cells, suspended in 45 microl medium, were plated into each well of a black 384-well plate for fluorescence imaging experiments. […] Compound incubation was terminated by (a) fixation and (b) permeabilisation of cells, followed by (c) fluorescence labeling of cell nuclei for cytometric quantification or by immunocytochemistry for microscopic evaluation of cell morphology. […]
as §1, §2

| SMILES | Normalized toxicity values (Hek293T) (Hek293T; 0.005 microM) | Normalized toxicity values (Hek293T) (Hek293T; 0.015 microM) | Normalized toxicity values (Hek293T) (Hek293T; 0.046 microM) | Normalized toxicity values (Hek293T) (Hek293T; 0.137 microM) | Normalized toxicity values (Hek293T) (Hek293T; 0.412 microM) | Normalized toxicity values (Hek293T) (Hek293T; 1.235 microM) | Normalized toxicity values (Hek293T) (Hek293T; 3.704 microM) | Normalized toxicity values (Hek293T) (Hek293T; 11.111 microM) | Normalized toxicity values (Hek293T) (Hek293T; 33.333 microM) | Normalized toxicity values (Hek293T) (Hek293T; 100.000 microM) | Normalized cell count (HS68) (HS68; 0.005 microM) | Normalized cell count (HS68) (HS68; 0.015 microM) | Normalized cell count (HS68) (HS68; 0.046 microM) | Normalized cell count (HS68) (HS68; 0.137 microM) | Normalized cell count (HS68) (HS68; 0.412 microM) | Normalized cell count (HS68) (HS68; 1.235 microM) | Normalized cell count (HS68) (HS68; 3.704 microM) | Normalized cell count (HS68) (HS68; 11.111 microM) | Normalized cell count (HS68) (HS68; 33.333 microM) | Normalized cell count (HS68) (HS68; 100.000 microM) | other results |
| --- | --- | --- | --- | --- | --- | --- | --- | --- | --- | --- | --- | --- | --- | --- | --- | --- | --- | --- | --- | --- | --- |
| CCOC(=O)c1c(C)nc2c(c(N3CCN(Cc4ccccc4F)CC3)nc(=O)n2-c2ccccc2)c1-c1ccccc1 [Example 150] | 1.1200 | 1.0780 | 1.0735 | 1.0278 | 1.0553 | 0.9703 | 1.1975 | 1.2900 | 1.3025 | 1.5500 | 1 | 1.018 | 1.012 | 0.9701 | 0.9865 | 0.9917 | 1.106 | 1.081 | 1.034 | 0.6334 | – |
| CCOC(=O)c1c(C)nc2c(c(N3CCN(C/C=C/c4ccccc4)CC3)nc(=O)n2-c2ccccc2)c1-c1ccccc1 [Example 153, 7-Methyl-2-oxo-1,5-diphenyl-4-[4-((E)-3-phenyl-allyl)-piperazin-1-yl]-1,2-dihydro-pyrido[2,3-d]pyrimidine-6-carboxylic acid ethyl ester] | 1.0725 | 1.0650 | 1.0425 | 0.9703 | 1.0800 | 1.0623 | 1.1125 | 1.1475 | 1.1375 | 0.0290 | 1 | 1.0005 | 0.9849 | 0.9755 | 0.9186 | 0.9639 | 0.9349 | 0.9432 | 0.826 | 0.2108 | Effect on normal cells (HFF-1) (HFF-1): not affected; Effect on normal cells (HS-68) (HS68; 10 microM, HS-68 cell line): not affected |
| CCOC(=O)c1c(C)nc2c(c(N3CCN(C(c4ccc(F)cc4)c4ccc(F)cc4)CC3)nc(=O)n2-c2ccccc2)c1-c1ccccc1 [Example 157] | 1.1275 | 1.0600 | 1.1075 | 1.0975 | 0.9535 | 0.9633 | 1.0078 | 1.1475 | 1.3825 | 1.5650 | 1 | 1.092 | 1.081 | 1.128 | 1.062 | 1.132 | 1.18 | 1.167 | 1.2661 | 1.294 | – |

From EP2266984A1, “Pyrido[2,3-d]pyrimidines as Wnt antagonists for treatment of cancer and arthritis” (Deutsches Krebsforschungszentrum Stiftung des öffentlichen …, priority 2009, dated 2010)
